US20090226909A1 (Tel HaShomer Medical Research Infrastructure and Services …, priority 2006, published 2009)
“And” between values parts separate entries of the source, which are not always exact repeats. Equal values may be shown once.

Columns and labels:
[1] = two patients with VKORC1 Asp36Tyr; Geisen 2005b; cited from earlier work
[2] = Warfarin dose requirements in 99 unselected warfarin-treated subjects at stable INR, by VKORC1 Asp36Tyr (D36Y) carrier status; format: in vivo, human
[3] = Warfarin dose requirements in selected warfarin resistant and warfarin sensitive patients at stable therapeutic INR; format: in vivo, human
Method: Aliquots of fresh whole blood were drawn for INR determination and DNA extraction.
Data Analyses—Statistical analyses were performed using SPSS software (version 11.0, SPSS Inc.) and GB-STAT software package (version 8.0, Dynamic Microsystems Inc.). Relevant statistical applications are mentioned in the text, odds ratios (OR) are presented with 95% confidence limits, p value of <0.05 indicates statistical significance.

[4] = Effect of combined CYP2C9, VKORC1 and CALU genotypes on warfarin dose requirements (FIG. 2); format: in vivo, human; settings: dotted line of FIG. 2
From the text: The combined genotypes are ordered according to the model proposed by Wallin R, et al., 2001, assuming the reduced VKORC1 activity associated with the VKORC1 6853G→C polymorphism and the reduced activity of CALU associated with the CALU 73G→A (R4Q) polymorphism and assigning equal weight to CYP2C9 and VKORC1 genotypes. […] CYP2C9=cytochrome P450 2C9; VKORC1=vitamin K epoxide reductase component 1; CALU=calumenin;

[5] = CYP2C9*1 (wild type) allele; Higashi 2002, Sconce 2005; cited from earlier work
[6] = 23 selected resistant and sensitive subjects

Row | Compound | phenprocoumon requirement to maintain INR between 2.0 and 3.0 [1] | INR maintained under warfarin, range ([2]; 99 unselected warfarin-treated subjects) | INR maintained under warfarin ([2]; 99 unselected warfarin-treated subjects, stable INR) | warfarin dose requirements, range ([2]; carriers of VKORC1 Asp36Tyr (8/99), upper dose quartile) | warfarin dose requirements, range ([2]; non-carriers of Asp36Tyr (n=91)) | mean warfarin dose required ([2]; non-carriers of Asp36Tyr (n=91), mean±SD) [mg/week] | mean warfarin dose ([2]; whole unselected warfarin-treated group (N=99), stable INR) [mg/week] | INR maintained under warfarin [3, 6] | INR maintained under warfarin, range [3, 6] | mean warfarin weekly dose ([3]; warfarin resistant group (N=15, subjects 1-15)) | mean warfarin weekly dose ([3]; warfarin sensitive group (N=8, subjects 16-23)) | median weight-normalized warfarin dose [4] [mg/day] | warfarin doses associated with CYP2C9*1 variant [5]
1 | CCC(c1ccccc1)c1c(O)c2ccccc2oc1=O (stereo not shown) [phenprocoumon] | 40-50 mg per week | – | – | – | – | – | – | – | – | – | – | – | –
2 | CC(=O)CC(c1ccccc1)c1c(O)c2ccccc2oc1=O (stereo not shown) [warfarin] | – | 1.9-4.2 | 2.7±0.5 | 70-105 mg/week and > 70 mg/week | 8-70 mg/week | 42.7±7.5 | 39.4±7.8 | 2.7±0.5 | 1.9-4.2 | 112.8±29 mg/week and 112.8 mg/week | 10.5±2.32 mg/week and 10.5 mg/week | 4.8 | 28-39 mg/week
